pIC50: −log10 of the molar value. Where “and” joins values, the source holds several entries; their conditions need not be identical. Equal values may be shown once. Read-outs that look alike come from different tables or passages of the source.
What was measured:
normal PBMC = assay: Lymphocyte proliferation (3H-TdR incorporation), ConA-stimulated PBMC from normal human subject; assay type: cell-based; conditions: for pIC50: read-out: IC50 of ConA-induced cell proliferation; for IC100: 72 h, read-out: concentration at which proliferation was completely inhibited
Source text: (§1) In two of the types of lymphocytes, the mitogen, ConA, was used to induce proliferation, as described (Fox et al., 1993, Cell. Immunol. 150:45-58). The third type of lymphocytes used in this example proliferated actively in vitro without the need for mitogenic stimulation. The three types of lymphocytes which were used in this example were: PBMC obtained from a normal human subject and stimulated with ConA; PBMC, including malignant CD4+ T-lymphocytes, obtained from a human subject having CTCL and stimulated with ConA; and PBMC obtained from a normal human subject, which PBMC were exposed to Epstein-Barr virus (EBV) after being obtained from the subject, to produce transformed lymphocytes. It is known that EBV-transformed B-lymphocytes proliferate actively in vitro (Polack, 1996, Proc. Natl. Acad. Sci. U.S.A. 93:10411-10416; Longnecker, 1994, Leukemia 8:546-550).
(§2) Peripheral blood mononuclear cells (PBMC) were obtained by separating them from whole blood, using Ficoll-Paque separation techniques and media (Boyum, 1964, Nature 793-794). After they were obtained, PBMC were resuspended in RPMI 1640 medium, which comprised 10% (v/v) fetal bovine serum (GIBCO, Grand Island, N.Y.), and were distributed into the wells of 96-well microtiter plates. PBMC transformed using EBV were made as described (Neitzel, 1986, Hum. Gen. 73:320-326)
(§3) This stock solution stored at 4° C. in the dark. A stock solution comprising 462.5 μM 8-methoxypsoralen (8-MOP) was prepared in 2% (v/v) benzyl alcohol. 8-MOP was obtained from Sigma (St. Louis, Mo.).
(§4) In cultures of transformed leukocytes in which 8-MOP was used, the concentrations of 8-MOP which were used were 92.5 μM, 18.5 μM, 3.7 μM, 0.74 μM, 0.15 μM, and 0.030 μM. Thereafter, ConA was then added to preselected wells to achieve a final concentration of 10 μg/ml of ConA in those wells.
(§5) Following preparation of the microtiter culture plates, preselected plates were illuminated with fluorescent visible light for 10-30 minutes, using four fluorescent bulbs (type F15T8CW, TFC Inc., Taiwan) spaced at a distance of 9 cm above the plates. Other preselected plates were illuminated with 0.5-2 Joules per square centimeter UV-A light using a UV-A light box containing 8 UVAR 06-91 bulbs. Still other preselected plates were not exposed to light. The covers of plates which were exposed to light were left in place during illumination.
(§6) Following illumination, plates which had been illuminated were placed into a dark incubator which was maintained at 37° C. Non-illuminated plates were placed into the incubator immediately after preparation. All plates were incubated for seventy-two hours. During the final eighteen hours of incubation, tritiated thymidine (^3 H-TdR) was added to each well of each plate. No extraordinary precautions were used to prevent light exposure during the addition of ^3 H-TdR.
(§7) Lymphocyte proliferation was assessed by measuring the extent of incorporation of ^3 H-TdR into newly synthesized DNA within the cells at the end of the seventy-two hour incubation period, as described (Fox, 1993, Cell. Immunol. 150:45-58).

neoplastic ("CTL") PBMC = assay: Lymphocyte proliferation (3H-TdR incorporation), ConA-stimulated neoplastic PBMC from subject having CTCL; assay type: cell-based, human; conditions: for pIC50: read-out: IC50 of ConA-induced cell proliferation
Source text: as §1, §2, §3, §4, §5, §6, §7

[1] = test system: PBMC obtained from a patient having CTCL; assay: Induction of apoptosis of CTCL PBMC, TUNEL assay (Example 2); assay type: cell-based, human; conditions: for percentage of PBMC which underwent apoptosis: 10 μM hypericin or 100 ng/ml 8-MOP
Experimental: The processing of neoplastic leukocytes, the media and stock solutions used, and the procedures which were used were the same as those presented in Example 1, except as described below.
Cultures were illuminated using fluorescent light for 20 minutes, illuminated with 2 J/cm^2 UV-A light or were not illuminated. After 24 and 48 hours, apoptosis was measured using a TUNEL assay, as described (Sgonc, 1994 Trends Gen. 10:41-42). The TUNEL assay specifically labels free ends of internucleosomally-cleaved DNA--the hallmark of the apoptotic process.

malignant leukocytes = assay: Flow cytometric sorting of apoptotic malignant leukocytes (dUTP-FITC incorporation); assay type: cell-based, human; conditions: 10 μM hypericin or 0.462 μM 8-MOP, 18 h
Source text: FIG. 8, comprising Panels A-G, is a series of graphs which represent distributions of cell types within various cultures, as assessed by flow cytometric cell sorting, using incorporation of dUTP-FITC into fragmented DNA as a selection criterion. Malignant leukocytes which have not been induced to undergo apoptosis are represented as points which are located below an imaginary horizontal line located at approximately 2×10^1 on the vertical axis of each graph. Malignant leukocytes which have been induced to undergo apoptosis are represented as points which are located above an imaginary horizontal line located at approximately 3×10^1 on the vertical axis of each graph. […] The graph in Panel B corresponds to cells which were treated with hypericin and which were not illuminated. The graph in Panel C corresponds to cells which were treated with hypericin and which were illuminated using visible light. The graph in Panel D corresponds to cells which were treated with hypericin and which were illuminated using UV-A light. The graph in Panel E corresponds to cells which were treated with 8-MOP and which were not illuminated. The graph in Panel F corresponds to cells which were treated with 8-MOP and which were illuminated using visible light. The graph in Panel G corresponds to cells which were treated with 8-MOP and which were illuminated using UV-A light.
Hypericin-treated malignant leukocytes and 8-MOP-treated leukocytes were photoactivated using visible light for 20 minutes or 2 J/cm^2 UV-A light, or were not photoactivated, as described in Example 1. 18 hours after photoactivation, or 18 hours after preparation of the cultures which were not photoactivated, leukocyte cultures were harvested, and apoptotic cells were separated from non-apoptotic cells using a FACScan flow cytometer (Becton Dickinson Immunocytometry Systems, San Jose, Calif.). Apoptotic cells were distinguished from non-apoptotic cells based on increased dUTP-FITC incorporation.

[2] = test system: PBMC obtained from a normal human subject; assay: Induction of apoptosis in normal PBMC, TUNEL assay (Example 3); assay type: cell-based; conditions: for percentage of PBMC which underwent apoptosis: Normal, 18 h; for capability of inducing apoptosis: normal leukocytes, visible light
[3] = Homo sapiens, PBMC, 10 min, visible light, 10 min
[4] = Homo sapiens, PBMC, 20 min, visible light, 20 min
[5] = Homo sapiens, PBMC, 0.5 h, visible light, 30 min
[6] = Homo sapiens, PBMC, UV-A, 0.5 J/sc
[7] = Homo sapiens, PBMC, UV-A, 1 J/sc
[8] = Homo sapiens, PBMC, not illuminated, benzyl alcohol vehicle itself inhibitory at highest concentrations

Compound	pIC50 (normal PBMC; [3])	pIC50 (normal PBMC; [4])	pIC50 (normal PBMC; [6])	pIC50 (normal PBMC; [7])	pIC50 (normal PBMC; [8])	pIC50 (neoplastic ("CTL") PBMC; [3])	pIC50 (neoplastic ("CTL") PBMC; [4])	pIC50 (neoplastic ("CTL") PBMC; [6])	pIC50 (neoplastic ("CTL") PBMC; [7])	percentage of PBMC which underwent apoptosis ([1]; 24 h, UV-A 2 J/cm^2) [percentage]	percentage of PBMC which underwent apoptosis ([1]; 24 h, no light) [percentage]	percentage of PBMC which underwent apoptosis ([1]; 24 h, visible light 20 min) [percentage]	percentage of PBMC which underwent apoptosis ([1]; 48 h, UV-A 2 J/cm^2) [percentage]	percentage of PBMC which underwent apoptosis ([1]; 48 h, no light) [percentage]	percentage of PBMC which underwent apoptosis ([1]; 48 h, visible light 20 min) [percentage]	potency as inducer of apoptosis, hypericin vs 8-MOP ([1]; UV-A light)	induction of apoptosis (flow cytometry, FIG. 8) (malignant leukocytes; UV-A 2 J/cm^2)	induction of apoptosis (flow cytometry, FIG. 8) (malignant leukocytes; no photoactivation)	induction of apoptosis (flow cytometry, FIG. 8) (malignant leukocytes; visible light 20 min)	percentage of PBMC which underwent apoptosis ([2]; 1 μM, UV-A 2 J/cm^2) [percentage]	also measured
COc1c2occc2cc2ccc(=O)oc12 [8-MOP, 8-methoxypsoralen]	4.47	4.47	6.02	6.77	4.47	5.44	5.44	6.13	6.70	87	11.5	32	94	21	48	approximately equally potent inducers of apoptosis of malignant leukocytes	induced apoptosis in most cells	neither hypericin nor 8-MOP induced significant apoptosis	induced apoptosis in only a limited number of cells	22.9	pIC50 (normal PBMC; [5]): 4.47; pIC50 (normal PBMC; Homo sapiens, PBMC, UV-A, 2 J/sc): 6.82; pIC50 (neoplastic ("CTL") PBMC; [5]): 5.51; pIC50 (neoplastic ("CTL") PBMC; [8]): 5.36; percentage of PBMC which underwent apoptosis ([2]; 1 μM, no light): 3.8 percentage; percentage of PBMC which underwent apoptosis ([2]; 1 μM, visible light 20 min): 13.7 percentage; percentage of PBMC which underwent apoptosis ([2]; 10 μM, UV-A 2 J/cm^2): 63.0 percentage; percentage of PBMC which underwent apoptosis ([2]; 10 μM, no light): 6.8 percentage; percentage of PBMC which underwent apoptosis ([2]; 10 μM, visible light 20 min): 15.3 percentage; capability of inducing apoptosis [2]: not 8-MOP, is capable of inducing apoptosis in both normal and malignant leukocytes
Cc1cc(O)c2c(=O)c3c(O)cc(O)c4c5c(O)cc(O)c6c(=O)c7c(O)cc(C)c8c1c2c(c34)c(c78)c65 [hypericin, 1,3,4,6,8,13-Hexahydroxy-10,11,dimethyl-phenanthro[1,10,9,8,-opqra]perylene-7,14-dione]	6.12	6.96	5.34	5.68	4.66	6.40	6.47	5.74	6.24	88	11.5	97	96	18	91	approximately equally potent inducers of apoptosis of malignant leukocytes	induced apoptosis in most cells	neither hypericin nor 8-MOP induced significant apoptosis	induced apoptosis in nearly all cells	21.2	IC100 (normal PBMC; Homo sapiens, PBMC, visible light, 10 min): 3.2 µM; IC100 (normal PBMC; Homo sapiens, PBMC, visible light, 20 min): 0.64 µM; inhibition of mitogen-induced proliferation (normal PBMC; normal PBMC): inhibits mitogen-induced proliferation of PBMC; pIC50 (normal PBMC; not illuminated, benzyl alcohol vehicle itself inhibitory at highest concentrations): 4.63; effect of 30 min illumination on inhibition of proliferation (normal PBMC; visible light 30 min, relative to shorter illumination): did not significantly increase inhibition of cell proliferation; pIC50 (normal PBMC; visible light, 10 min): 6.17 and 6.10; pIC50 (normal PBMC; visible light, 20 min): 6.74 and 7.00; IC100 (neoplastic ("CTL") PBMC; Homo sapiens, PBMC, 72 h, visible light, 20 min, read-out: concentration at which proliferation was completely inhibited): 3.2 µM; inhibition of mitogen-induced proliferation (neoplastic ("CTL") PBMC; malignant PBMC): inhibits mitogen-induced proliferation of PBMC; pIC50 (neoplastic ("CTL") PBMC; visible light, 20 min): 6.28 and 6.52; potency as inducer of apoptosis, hypericin vs 8-MOP ([1]; visible light): much more potent inducer of apoptosis of malignant leukocytes than 8-MOP; percentage of PBMC which underwent apoptosis ([2]; 1 μM, no light): 4.8 percentage; percentage of PBMC which underwent apoptosis ([2]; 1 μM, visible light 20 min): 18.2 percentage; percentage of PBMC which underwent apoptosis ([2]; 10 μM, UV-A 2 J/cm^2): 37.3 percentage; percentage of PBMC which underwent apoptosis ([2]; 10 μM, no light): 5.4 percentage; percentage of PBMC which underwent apoptosis ([2]; 10 μM, visible light 20 min): 87.9 percentage; capability of inducing apoptosis [2]: capable of inducing apoptosis in both normal and malignant leukocytes

Source: patent US6001882A (priority 1997, dated 1999)
